Experimental data: patent US7759351B2, “Oxazolidinone compounds, and compositions and methods related thereto” (Ferrer Internacional, S.A., priority 2005, dated 2010)
Values after ≈ are worked out from the molar mass of the structure shown. Like-named read-outs stand apart in the source and are kept apart here.

Assays:
[1] = tested on: Enterococcus; experiment: Selective activity: geometric mean MIC in Enterococcus; assay type: cell-based; conditions: geometric mean over Enterococcus strains
[2] = tested on: Staphylococcus; experiment: Selective activity: geometric mean MIC in Staphylococcus; assay type: cell-based; conditions: for MIC / Geometric Mean MIC Staphylococcus: geometric mean over Staphylococcus strains; for Selectivity Enterococcus/Staphylococcus: ratio of geometric mean MIC Enterococcus to geometric mean MIC Staphylococcus
[3] = tested on: S. pneumoniae ATCC 49619 PR 215; experiment: MIC, standard microdilution method (NCCLS M7-A5); assay type: cell-based, Streptococcus pneumoniae; conditions: for MIC: Streptococcus pneumoniae, ATCC49619, read-out: In vitro activities against bacteria, MIC
[4] = target: T1, human MAO-A (Homo sapiens, UniProt P21397); experiment: In vitro MAO-A enzymatic activity (kynuramine substrate, fluorescence); assay type: biochemical; conditions: compound at 10 μM
T1 construct: purchased Gentest, BD, USA; host or cells: SF9 insect cells (membranes)
T1 sequence (P21397 1-527): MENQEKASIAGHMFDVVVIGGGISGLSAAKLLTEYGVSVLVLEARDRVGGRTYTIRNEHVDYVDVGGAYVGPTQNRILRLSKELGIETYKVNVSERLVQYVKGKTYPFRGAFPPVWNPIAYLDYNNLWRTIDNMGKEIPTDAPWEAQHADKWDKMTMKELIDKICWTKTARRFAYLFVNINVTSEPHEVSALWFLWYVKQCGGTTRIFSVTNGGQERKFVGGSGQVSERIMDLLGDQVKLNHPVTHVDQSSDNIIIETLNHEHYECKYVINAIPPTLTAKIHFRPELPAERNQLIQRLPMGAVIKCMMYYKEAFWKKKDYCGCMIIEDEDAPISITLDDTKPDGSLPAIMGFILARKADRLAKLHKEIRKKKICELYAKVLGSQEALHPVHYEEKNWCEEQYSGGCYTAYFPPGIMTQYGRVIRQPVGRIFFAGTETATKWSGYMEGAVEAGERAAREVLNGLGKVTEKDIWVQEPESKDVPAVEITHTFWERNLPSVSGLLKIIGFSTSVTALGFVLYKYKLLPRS

[5] = target: T2, human MAO-B (Homo sapiens, UniProt P27338); experiment: In vitro MAO-B enzymatic activity (kynuramine substrate, fluorescence); assay type: biochemical; conditions: human MAO-B, compound at 1 μM
T2 construct: purchased Gentest, BD, USA; host or cells: SF9 insect cells (membranes)
T2 sequence (P27338 1-520): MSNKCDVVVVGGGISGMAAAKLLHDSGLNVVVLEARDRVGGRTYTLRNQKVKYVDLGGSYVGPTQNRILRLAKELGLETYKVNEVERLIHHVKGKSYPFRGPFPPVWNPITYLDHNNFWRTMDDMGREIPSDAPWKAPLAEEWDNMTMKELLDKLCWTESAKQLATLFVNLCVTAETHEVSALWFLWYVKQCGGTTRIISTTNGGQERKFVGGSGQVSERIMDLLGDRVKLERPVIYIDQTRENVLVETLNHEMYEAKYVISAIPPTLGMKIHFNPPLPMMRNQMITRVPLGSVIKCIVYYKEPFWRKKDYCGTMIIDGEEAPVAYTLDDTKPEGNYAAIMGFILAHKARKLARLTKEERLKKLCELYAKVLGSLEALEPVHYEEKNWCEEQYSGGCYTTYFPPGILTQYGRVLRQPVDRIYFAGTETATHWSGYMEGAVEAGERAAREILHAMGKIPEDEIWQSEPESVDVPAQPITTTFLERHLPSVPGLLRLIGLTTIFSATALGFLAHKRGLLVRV

[6] = tested on: S. epidermidis ATCC 12228 MR 11; experiment: microbe, parasite or virus in culture; assay type: cell-based, Staphylococcus epidermidis; conditions: for MIC: Staphylococcus epidermidis, ATCC12228, read-out: In vitro activities against bacteria, MIC
[7] = tested on: S. aureus ATCC 25923 MS 319; experiment: MIC, standard microdilution method (NCCLS M7-A5); assay type: cell-based, Staphylococcus aureus; conditions: for MIC: Staphylococcus aureus, ATCC25923, read-out: In vitro activities against bacteria, MIC
[8] = tested on: S. aureus ATCC 43300 MR 214; experiment: MIC, standard microdilution method (NCCLS M7-A5); assay type: cell-based, Staphylococcus aureus; conditions: for MIC: Staphylococcus aureus, ATCC43300, read-out: In vitro activities against bacteria, MIC
[9] = tested on: Moxorella, Pasteurella and Bacteroides spp.; conditions: background literature; cited from earlier work
[10] = S. pneumoniae ATCC 49619 PR 215
[11] = S. epidermidis ATCC 12228 MR 11
[12] = listed as Comparartive Example 1

COc1ccc2cc(C(=O)NC[C@H]3CN(c4ccc(N5CCOCC5)c(F)c4)C(=O)O3)c(C)nc2c1 [Ex. 1, 7-methoxy-2-methyl-N-[[(5S)-3-[3-fluoro-4-(4-morpholinyl)phenyl]-2-oxo-5-oxazolidinyl]methyl]-3-quinolinecarboxamide]
Geometric Mean MIC Enterococcus [1]: 5.7 µg/mL | MIC [2]: 0.6 µg/mL (≈ 1.21 µM) | Selectivity Enterococcus/Staphylococcus [2]: 9.5

O=C(NC[C@H]1CN(c2ccc(N3CCOCC3)c(F)c2)C(=O)O1)c1cc2cc([N+](=O)[O-])ccc2o1 [Comparative Example 3, reference compound]
Geometric Mean MIC Enterococcus [1]: 0.7 µg/mL | Geometric Mean MIC Staphylococcus [2]: 0.8 µg/mL | Selectivity Enterococcus/Staphylococcus [2]: 0.9

COc1ccc2cc(C(=O)NC[C@H]3CN(c4ccc(N5CCN(C(=O)C6CC6)CC5)c(F)c4)C(=O)O3)c(C)nc2c1 [Ex. 34]
In vitro activities against bacteria, MIC [3, 10]: 0.50 µg/mL | Geometric Mean MIC Enterococcus [1]: 40.3 µg/mL | Geometric Mean MIC Staphylococcus [2]: 0.4 µg/mL | Selectivity Enterococcus/Staphylococcus [2]: 100 | MAO-A % inh (10 μM) [4]: 7% | MAO-B % inh (1 μM) [5]: 8% | In vitro activities against bacteria, MIC [6, 11]: 0.50 µg/mL | In vitro activities against bacteria, MIC ([7]; S. aureus ATCC 25923 MS 319): 0.50 µg/mL | In vitro activities against bacteria, MIC ([8]; S. aureus ATCC 43300 MR 214): 0.50 µg/mL

COc1ccc2cc(C(=O)NC[C@H]3CN(c4ccc(N5CCN(C(=O)c6c[nH]cn6)CC5)c(F)c4)C(=O)O3)c(C)nc2c1 [Ex. 31]
In vitro activities against bacteria, MIC [3, 10]: 4.00 µg/mL | In vitro activities against bacteria, MIC [6, 11]: 2.00 µg/mL | In vitro activities against bacteria, MIC ([7]; S. aureus ATCC 25923 MS 319): 4.00 µg/mL | In vitro activities against bacteria, MIC ([8]; S. aureus ATCC 43300 MR 214): 2.00 µg/mL

CC(=O)NC[C@H]1CN(c2ccc(N3CCOCC3)c(F)c2)C(=O)O1 [Linezolid, N-[[(5S)-3-[3-fluoro-4-(4-morpholinyl)phenyl]-2-oxo-5-oxazolidinyl]methyl]acetamide, reference compound]
MIC [3, 10]: 2 µg/mL (≈ 5.93 µM) | MIC [9]: 2 to 8 µg/mL | inhibition at 10 µM ([4]; read-out: MAO-A % inh (10 μM)): 41% | inhibition at 1 µM ([5]; read-out: MAO-B % inh (1 μM)): 62% | MIC [6]: 1 µg/mL (≈ 2.96 µM) | MIC ([7]; S. aureus ATCC 25923 MS 319): 2 µg/mL (≈ 5.93 µM) | MIC ([8]; S. aureus ATCC 43300 MR 214): 1 µg/mL (≈ 2.96 µM)

COc1ccc2cc(C(=O)NC[C@H]3CN(c4ccc(N5CCN(C(C)=O)CC5)c(F)c4)C(=O)O3)c(C)nc2c1 [Ex. 3, 7-methoxy-2-methyl-N-[[(5S)-3-[3-fluoro-4-(4′-acetyl-4-piperazinyl)-phenyl]-2-oxo-5-oxazolidinyl]methyl]-3-quinolinecarboxamide]
Geometric Mean MIC Enterococcus [1]: 5.7 µg/mL | MIC [2]: 0.4 µg/mL (≈ 0.747 µM) | Selectivity Enterococcus/Staphylococcus [2]: 14.3

COc1ccc2cc(C(=O)NC[C@H]3CN(c4ccc(N5CCN(C(=O)c6cccnc6)CC5)c(F)c4)C(=O)O3)c(C)nc2c1 [Ex. 42]
In vitro activities against bacteria, MIC [3]: 1.00 µg/mL | MAO-A % inh (10 μM) [4]: 5% | MAO-B % inh (1 μM) [5]: 7% | In vitro activities against bacteria, MIC [6]: 0.5 µg/mL | In vitro activities against bacteria, MIC [7]: 1.00 µg/mL | In vitro activities against bacteria, MIC [8]: 0.06 µg/mL

COc1ccc2cc(C(=O)NC[C@H]3CN(c4ccc(N5CCOCC5)c(F)c4)C(=O)O3)c(C)nc2c1 [compound 1, reference compound]
Geometric Mean MIC Enterococcus [1, 12]: 4.8 µg/mL | Geometric Mean MIC Staphylococcus [2]: 5.7 µg/mL | Selectivity Enterococcus/Staphylococcus [2, 12]: 0.8

COc1ccc2cc(C(=O)NC[C@H]3CN(c4ccc(N5CCS(=O)(=O)CC5)c(F)c4)C(=O)O3)c(C)nc2c1 [Ex. 8, 7-methoxy-2-methyl-N-[[(5S)-3-[3-fluoro-4-(1,1-dioxothiomorpholin-4-yl)-phenyl]-2-oxo-5-oxazolidinyl]methyl]-3-quinolinecarboxamide]
MIC [3, 10]: 1 µg/mL (≈ 1.84 µM) | MIC [6]: 2 µg/mL (≈ 3.69 µM) | MIC ([7]; S. aureus ATCC 25923 MS 319): 2 µg/mL (≈ 3.69 µM) | MIC ([8]; S. aureus ATCC 43300 MR 214): 2 µg/mL (≈ 3.69 µM)

COc1ccc2cc(C(=O)NC[C@H]3CN(c4ccc(N5CCN(C(=O)C6=NNC(=O)CC6)CC5)c(F)c4)C(=O)O3)c(C)nc2c1 [Ex. 29]
Geometric Mean MIC Enterococcus [1]: 32 µg/mL | Geometric Mean MIC Staphylococcus [2]: 1.7 µg/mL | Selectivity Enterococcus/Staphylococcus [2]: 18.8

C=CC(=O)N1CCN(c2ccc(N3C[C@H](CNC(=O)c4cc5ccc(OC)cc5nc4C)OC3=O)cc2F)CC1 [Ex. 24]
Geometric Mean MIC Enterococcus [1]: 16 µg/mL | Geometric Mean MIC Staphylococcus [2]: 0.6 µg/mL | Selectivity Enterococcus/Staphylococcus [2]: 27.0

COc1ccc2nc(C)c(C(=O)NC[C@H]3CN(c4ccc(N5CCOCC5)c(F)c4)C(=O)O3)cc2c1 [Ex. 18]
Geometric Mean MIC Enterococcus [1]: 8 µg/mL | MIC [2]: 1 µg/mL (≈ 2.02 µM) | Selectivity Enterococcus/Staphylococcus [2]: 8.0

O=C(NC[C@H]1CN(c2ccc(N3CCOCC3)c(F)c2)C(=O)O1)c1coc2ccccc12 [Comparative Example 2, reference compound]
Geometric Mean MIC Enterococcus [1]: 3.4 µg/mL | Geometric Mean MIC Staphylococcus [2]: 12.7 µg/mL | Selectivity Enterococcus/Staphylococcus [2]: 0.3

COc1ccc2cc(C(=O)NC[C@H]3CN(c4ccc(N5CCN(C(=O)CO)CC5)c(F)c4)C(=O)O3)c(C)nc2c1 [Ex. 35]
Geometric Mean MIC Enterococcus [1]: 5.0 | Geometric Mean MIC Staphylococcus [2]: 0.6 µg/mL | Selectivity Enterococcus/Staphylococcus [2]: 8.3
